Assay results taken from patent publication US20160244437A1, “SUBSTITUTED PHENYLALANINE DERIVATIVES” (BAYER PHARMA AKTIENGESELLSCHAFT, priority 2013, published 2016).
pIC50: −log10 of the molar value. Structures can show the parent of a compound that is named as a salt.

Assays:
[1] = system: human and animal plasma; assay: Determination of anticoagulatory activity: activated partial thromboplastin time (aPTT) in plasma; details: concentration of test substance which brings about a 1.5-fold extension of the aPTT; plasma in vitro, C.K. Prest kit
Method in brief: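 Citrated plasma (human, mouse, rat, rabbit, pig, dog) incubated with varying compound concentrations and cephalin/kaolin PTT reagent for 3 minutes at 37° C.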

[2] = biological target: T1, human factor XIa (Homo sapiens, UniProt P03951); assay: Measurement of FXIa inhibition (fluorogenic peptide substrate Boc-Glu(OBzl)-Ala-Arg-AMC); assay type: biochemical; details: factor XIa from Kordia 0.45 nM, 15 min pre-incubation, 30 min at 22° C., fluorescence
T1 construct: purchased Kordia
T1 sequence (P03951 388-625 limits assumed): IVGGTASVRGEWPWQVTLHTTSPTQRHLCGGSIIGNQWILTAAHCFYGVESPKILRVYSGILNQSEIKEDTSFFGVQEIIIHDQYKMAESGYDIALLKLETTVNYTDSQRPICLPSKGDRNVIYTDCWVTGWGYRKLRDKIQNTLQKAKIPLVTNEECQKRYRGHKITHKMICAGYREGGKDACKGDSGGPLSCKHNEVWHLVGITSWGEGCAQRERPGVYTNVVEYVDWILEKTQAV
T1 sequence (P03951 19-387 partner limits assumed): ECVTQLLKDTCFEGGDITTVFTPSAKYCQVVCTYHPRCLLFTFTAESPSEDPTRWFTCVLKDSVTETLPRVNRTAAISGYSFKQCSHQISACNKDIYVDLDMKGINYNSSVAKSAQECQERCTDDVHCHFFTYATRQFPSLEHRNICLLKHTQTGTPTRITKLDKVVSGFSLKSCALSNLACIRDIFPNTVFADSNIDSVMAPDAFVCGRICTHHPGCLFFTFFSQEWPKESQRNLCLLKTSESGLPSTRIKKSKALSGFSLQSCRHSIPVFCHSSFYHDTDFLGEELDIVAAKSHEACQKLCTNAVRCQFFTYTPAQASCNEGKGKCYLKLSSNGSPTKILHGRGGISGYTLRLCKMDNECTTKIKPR

pIC50 [2]	Structure (SMILES)	aPTT [1] [µmol/L]
7.23	CN(C)CCCOc1ccc(-c2cccc(C[C@H](NC(=O)[C@H]3CC[C@H](CN)CC3)C(=O)Nc3ccc4[nH]c(=O)[nH]c4c3)c2)cn1 [Example 100, N-alpha-{[trans-4-(Aminomethyl)cyclohexyl]carbonyl}-3-{6-[3-(dimethylamino)propoxy]pyridin-3-yl}-N-(2-oxo-2,3-dihydro-1H-benzimidazol-5-yl)-L-phenylalaninamide hydrochloride]	0.34
7.85	CN(C)CCCOc1ccc(-c2cccc(C[C@H](NC(=O)[C@H]3CC[C@H](CN)CC3)C(=O)Nc3ccc(-c4nnc(C(F)(F)F)[nH]4)cc3)c2)cn1 [Example 101, N-alpha-{[trans-4-(Aminomethyl)cyclohexyl]carbonyl}-3-{6-[3-(dimethylamino)propoxy]pyridin-3-yl}-N-{4-[3-(trifluoromethyl)-4H-1,2,4-triazol-5-yl]phenyl}-L-phenylalaninamide hydrochloride]	0.43
8.66	Cc1cc(N2CCOCC2)ncc1-c1cccc(C[C@H](NC(=O)[C@H]2CC[C@H](CN)CC2)C(=O)Nc2ccc(-c3nnc(Cl)[nH]3)cc2)c1 [Example 102, N-alpha-{[trans-4-(Aminomethyl)cyclohexyl]carbonyl}-N-[4-(3-chloro-4H-1,2,4-triazol-5-yl)phenyl]-3-[4-methyl-6-(morpholin-4-yl)pyridin-3-yl]-L-phenylalaninamide hydrochloride]	0.43
8.48	Cc1ccc(N)cc1-c1cccc(C[C@H](NC(=O)[C@H]2CC[C@H](CN)CC2)C(=O)Nc2ccc(-c3nnn[nH]3)cc2)c1 [Example 103, trans-4-(Aminomethyl)-N-[(2S)-3-(5′-amino-2′-methylbiphenyl-3-yl)-1-oxo-1-{[4-(1H-tetrazol-5-yl)phenyl]amino}propan-2-yl]cyclohexanecarboxamide hydrochloride]	0.1
7.89	COCc1nnc(-c2ccc(NC(=O)[C@H](Cc3cccc(-c4cccc5ncccc45)c3)NC(=O)[C@H]3CC[C@H](CN)CC3)cc2)[nH]1 [Example 105, N-alpha-{[trans-4-(Aminomethyl)cyclohexyl]carbonyl}-3-quinolin-5-yl-N-{4-[5-(methoxymethyl)-4H-1,2,4-triazol-3-yl]phenyl}-L-phenylalaninamide hydrochloride]	0.14
8.24	NC[C@H]1CC[C@H](C(=O)N[C@@H](Cc2cccc(-c3cncc(S(=O)(=O)NC4CCNCC4)c3)c2)C(=O)Nc2ccc(-c3nnc(Cl)[nH]3)cc2)CC1 [Example 106, N-alpha-{[trans-4-(Aminomethyl)cyclohexyl]carbonyl}-N-[4-(3-chloro-4H-1,2,4-triazol-5-yl)phenyl]-3-[5-(piperidin-4-ylsulphamoyl)pyridin-3-yl]-L-phenylalaninamide hydrochloride]	0.13

Structure (SMILES)	pIC50 [2]	aPTT [1] [µmol/L]
NC[C@H]1CC[C@H](C(=O)N[C@@H](Cc2cccc(-c3cnccc3Cl)c2)C(=O)Nc2ccc(-c3noc(=O)[nH]3)cc2)CC1 [Example 107, N-alpha-{[trans-4-(Aminomethyl)cyclohexyl]carbonyl}-3-(4-chloropyridin-3-yl)-N-[4-(5-oxo-4,5-dihydro-1,2,4-oxadiazol-3-yl)phenyl]-L-phenylalaninamide hydrochloride]	8.21	0.7
CN(C)CCCOc1ccc(-c2cccc(C[C@H](NC(=O)[C@H]3CC[C@H](CN)CC3)C(=O)Nc3ccc(-c4nc(C(F)(F)C(F)(F)C(F)(F)C(=O)O)n[nH]4)cc3)c2)cn1 [Example 108, 4-(5-{4-[(N-{[trans-4-(Aminomethyl)cyclohexyl]carbonyl}-3-{6-[3-(dimethylamino)propoxy]pyridin-3-yl}-L-phenylalanyl)amino]phenyl}-1H-1,2,4-triazol-3-yl)-2,2,3,3,4,4-hexafluorobutanoic acid hydrochloride]	8.26	0.25
CN(C)CCCOc1ccc(-c2cccc(C[C@H](NC(=O)[C@H]3CC[C@H](CN)CC3)C(=O)Nc3ccc(-c4nc(C(F)(F)C(F)(F)C(=O)O)n[nH]4)cc3)c2)cn1 [Example 109, hydrochloride]	8.22	0.16
